Reference: patent US20140378679A1, “CRYSTALLINE CARBOHYDRATE DERIVATIVE” (GLYCOM A/S, priority 2008, published 2014)

Experiments:
[1] = Anomeric stability in D2O solution followed by 1H-NMR; format: physicochemical; conditions: 10 mg in 700 μL D2O, room temperature; 1H-NMR recorded immediately and a day later
Experimental: 10 mg pure α-lactosamine hydrochloride was dissolved in 700 μL D2O, then 1H-NMR spectrum was recorded immediately. A second 1H-NMR spectra was recorded a day later, by which time the clean substance had already anomerized. On first spectrum (FIG. 3, above) at 5.26 ppm the H-1 and at 4.29 ppm the H-1′ can be seen. On the second spectrum (FIG. 3, below) next to the alpha anomer already the beta appears. At 4.78 ppm H-1-beta and at 2.85 ppm H-2-beta can be seen.

Row | melting point [°C] | Compound | anomerization of the pure alpha anomer in solution (appearance of beta anomer) [1]
1 | 174 | Cl.N[C@@H]1[C@@H](O)[C@H](O[C@@H]2O[C@H](CO)[C@H](O)[C@H](O)[C@H]2O)[C@@H](CO)O[C@@H]1O (hydrate or solvate) [α-lactosamine hydrochloride] | –
2 | – | Cl.N[C@@H]1[C@@H](O)[C@H](O[C@@H]2O[C@H](CO)[C@H](O)[C@H](O)[C@H]2O)[C@@H](CO)O[C@@H]1O [α-lactosamine hydrochloride] | anomerizes at room temperature within one day
